Reference: patent US6855728B2, “Small-molecule modulators of hepatocyte growth factor / scatter factor activities” (North Shore-Long Island Jewish Health System, priority 2001, dated 2005)

Tests used:
[1] = tested on: Endothelial cells (HUVECs); assay: Endothelial cell (HUVEC) proliferation assay, 3H thymidine incorporation, compound without added growth factor; type: cell-based, human; settings: for inhibition at 2 µg/mL / inhibition at 6 µg/mL: Homo sapiens, inhibition of HUVEC proliferation; for Activity at 2 microgram/ml Without HGF/SF (result in words) / inhibition at 2 µg/mL / Activity at 2 microgram/ml Without HGF/SF: stimulation: 2 microgram/ml
Method: Cell proliferation assays Endothelial cells (HUVECs) were seeded in 48 well plates at a density of 10,000 to 20,000 cells per well in the normal growth medium (EGM-2-Clonetics) containing 2% fetal bovine serum, FGF, VEGF, IGF, ascorbic acid, EGF, GA, heparin and hydrocortisone. The cells were grown normally in the growth medium for 24 hr at 37 degrees C. and 5% CO2. The cells were then rinsed with RPMI-1% BSA and starved for 1-2 hrs. The stock solutions of all the compounds were made at a concentration of 10 mg/ml in DMSO and diluted in RPMI-1% BSA at a final concentrations of 1 to 12 microgram/ml. The cells were then washed and treated with the compounds and incubated for another 24 hr at 37 degrees C. Then ^3H thymidine (0.5 microgram/ml in RPMI-BSA) was added to the cells and incubated at 37 degrees C. for 4 to 5 hours. The unincorporated thymidine was removed by washing the cells four times with 1× PBS. Then the cells were lysed with 0.5M NaOH for 30 min and the radioactivity counted in the beta counter. […]

[2] = tested on: MDCK cells exposed to adriamycin; assay: Anti-apoptotic activity assay (MTT viability, adriamycin-induced apoptosis); type: cell-based
VEGF-like activity = assay: Screen for VEGF-like activity in a standard assay; type: cell-based; settings: for VEGF-like activity: 2 microgram/ml compound
Excerpt: Compounds were screened for VEGF-like activity in a standard assay using 2 microgram/ml compound.

[3] = tested on: HGF/SF induced proliferation of HUVEC; assay: Endothelial cell (HUVEC) proliferation assay in the presence of exogenously-added HGF/SF; type: cell-based, human; settings: with HGF/SF; for inhibition at 6 µg/mL / inhibition at 2 µg/mL: Homo sapiens; for inhibition at 6 µg/mL: read-out: Activity at 6 microgram/ml With HGF/SF: inhibition (blocked SF); for inhibition at 2 µg/mL: read-out: Activity at 2 microgram/ml With HGF/SF: inhibition (blocked SF); for Inhibition at 6-12 micrograms/ml With: inhibition of endothelial cell proliferation
Excerpt: To evaluate inhibitors of activity, compounds may be evaluated directly for anti-proliferative activities, such as the inhibition of cellular proliferation, inhibition of tumor growth, inhibition of scatter, and inhibition of gene expression, and may also be evaluated on their ability to inhibit activity when exposed to cells together with. In such instances, the scatter and/or proliferative activities induced by added will be inhibited by the attendant presence of an inhibitory compound of the invention.
Cell proliferation assays Endothelial cells (HUVECs) were seeded in 48 well plates at a density of 10,000 to 20,000 cells per well in the normal growth medium (EGM-2-Clonetics) containing 2% fetal bovine serum, FGF, VEGF, IGF, ascorbic acid, EGF, GA, heparin and hydrocortisone. The cells were grown normally in the growth medium for 24 hr at 37 degrees C. and 5% CO2. The cells were then rinsed with RPMI-1% BSA and starved for 1-2 hrs. The stock solutions of all the compounds were made at a concentration of 10 mg/ml in DMSO and diluted in RPMI-1% BSA at a final concentrations of 1 to 12 microgram/ml. The cells were then washed and treated with the compounds and incubated for another 24 hr at 37 degrees C. Then ^3H thymidine (0.5 microgram/ml in RPMI-BSA) was added to the cells and incubated at 37 degrees C. for 4 to 5 hours. The unincorporated thymidine was removed by washing the cells four times with 1× PBS. Then the cells were lysed with 0.5M NaOH for 30 min and the radioactivity counted in the beta counter.

DU145 cells = assay: Clonogenic assay; type: cell-based; settings: clonogenic assay over 7 days
Method: The effect of (4-(2-chloro-6-fluorobenzyl)-3,5-dimethyl-1H-pyrazole-1-yl)(3-(2,6-dichlorophenyl)-5-methylisoxazol-4-yl)methanone (FIG. 7) and 1-(4-chloro-3-methylphenyl)-3-(2,6-dichlorophenyl)-prop-2-en-1-one were evaluated in a clonogenic assay over 7 days.

[4] = tested on: growth of blood vessels from subcutaneous tissue into Matrigel; assay: In vivo blood vessel ingrowth assay (Matrigel); settings: mice, Matrigel mixed with compound injected subcutaneously, 10 days
Method: Angiogenesis was assayed as growth of blood vessels from subcutaneous tissue into a solid gel of basement membrane containing the test compound. Matrigel in liquid form (0.5 ml) was mixed with a compound of the invention, or basic fibroblast growth factor as a control, and injected into the abdominal subcutaneous tissue of mice as previously described (Kibbey, M. C., Grant, D. S. Auerbach, R. and Kleinman, H. K. [1992] Role of the SIKVAV site of laminin in promotion of angiogenesis and tumor growth: an in vivo Matrigel model. J. Natl. Can. Inst. 84, 1633-38). After 10 days, mice were sacrificed and the Matrigel plugs were removed, fixed, sectioned, stained and examined for ingrowth of blood vessels.

[5] = 6 microgram/ml, inhibition of HUVEC proliferation
[6] = 2 microgram/ml, inhibition of HUVEC proliferation
[7] = without HGF/SF, stimulation of HUVEC proliferation
[8] = 6-12 micrograms/ml, without HGF/SF, stimulation of endothelial cell proliferation

Compound: HGF/SF: hepatocyte growth factor/scatter factor, pleiotropic growth factor; evaluated as a positive control
- effect on HUVEC proliferation, substance alone (FIG. 5) [1]: increases the proliferation of HUVEC
- protection from adriamycin-induced apoptosis ([2]; MDCK cells): 94%
- cell viability, substance alone ([2]; without adriamycin): unchanged

Compound: COc1cccc2c1C(=O)c1c(O)c3c(c(O)c1C2=O)C[C@@](O)(C(=O)CO)C[C@@H]3O[C@H]1C[C@H](N)[C@H](O)[C@H](C)O1 [Adriamycin, reference compound]
- cell viability ([2]; Adriamycin (15 µM)): 56 % of control

Compound: VEGF
- activity of VEGF in the VEGF-like activity assay (VEGF-like activity): 1259±104 cpm

Compound: CN(C)c1nc(-c2ccccc2)nc(-c2ccc(Cl)cc2)c1C#N [VC14, 4-(4-chlorophenyl)-6-(dimethylamino)-2-phenyl-5-pyrimidinecarbonitrile]
- VEGF-like activity (VEGF-like activity): positive activity

Compound: Cc1nn(C(=O)c2cccs2)c(C)c1Cc1c(F)cccc1Cl [(4-(2-chloro-6-fluorobenzyl)-3,5-dimethyl-1H-pyrazole-1-yl)(2-thienyl)methanone]
- Activity at 2 microgram/ml Without HGF/SF (result in words) ([1]; without HGF/SF): No effect
- Activity at 6 microgram/ml Without HGF/SF (result in words) ([1]; 6 microgram/ml, without HGF/SF): No effect
- Activity at 2 microgram/ml With HGF/SF (result in words) ([3]; 2 microgram/ml): No effect
- inhibition at 6 µg/mL [3, 5]: 61%

Compound: Cc1onc(-c2c(Cl)cccc2Cl)c1C(=O)NNc1cccc(C(F)(F)F)n1 [N′4-(6-(trifluoromethyl)-2-pyridyl)-3-(2,6-dichlorophenyl)-5-methylisoxazole-4-carbohydrazide]
- inhibition at 2 µg/mL ([1]; without HGF/SF): 40%
- inhibition at 6 µg/mL ([1]; 6 microgram/ml, without HGF/SF): 50%
- inhibition at 2 µg/mL [3, 6]: 50%
- inhibition at 6 µg/mL [3, 5]: 80%

Compound: Cc1nn(C(=O)c2c(Cl)cccc2Cl)c(C)c1Cc1c(F)cccc1Cl [(4-(2-chloro-6-fluorobenzyl)-3,5-dimethyl-1H-pyrazole-1-yl)(2,6-dichlorophenyl)methanone]
- Activity at 2 microgram/ml Without HGF/SF (result in words) ([1]; without HGF/SF): not significant
- Activity at 6 microgram/ml Without HGF/SF (result in words) ([1]; 6 microgram/ml, without HGF/SF): not significant
- inhibition at 2 µg/mL [3, 6]: 23%
- inhibition at 6 µg/mL [3, 5]: 90%

Compound: Cc1nn(C(=O)c2c(-c3c(Cl)cccc3Cl)noc2C)c(C)c1Cc1c(F)cccc1Cl [(4-(2-chloro-6-fluorobenzyl)-3,5-dimethyl-1H-pyrazole-1-yl)(3-(2,6-dichlorophenyl)-5-methylisoxazol-4-yl)methanone]
- Activity at 2 microgram/ml Without HGF/SF (result in words) ([1]; without HGF/SF): No effect
- DU145 cell growth (DU145 cells): dose responsive inhibition
- inhibition at 2 µg/mL [3, 6]: 40 to 90%
- inhibition at 6 µg/mL [3, 5]: 50 to 100%
- ingrowth of blood vessels into Matrigel plug [4]: significant stimulation of blood vessel ingrowth

Compound: Cc1n[nH]c(C)c1Cc1c(F)cccc1Cl [4-(2-chloro-6-fluorobenzyl)-3,5-dimethyl-1H-pyrazole]
- Activity at 2 microgram/ml Without HGF/SF: stimulation [1, 7]: 54%
- Activity at 6 microgram/ml Without HGF/SF (result in words) ([1]; 6 microgram/ml, without HGF/SF): No effect
- Activity at 2 microgram/ml With HGF/SF (result in words) ([3]; 2 microgram/ml): No effect
- Activity at 6 microgram/ml With HGF/SF (result in words) ([3]; 6 microgram/ml): No effect

Compound: C1=C(c2ccccc2)c2ccccc2C1(c1ccccc1)c1ccccc1 [1,1,3-triphenylinedene]
- Stimulation at 6-12 micrograms/ml Without HGF/SF [1, 8]: 50-100% stimulation
- Stimulation at 6-12 micrograms/ml With ([3]; 6-12 micrograms/ml, stimulation of endothelial cell proliferation): 30-40% stimulation

Compound: Cc1onc(-c2c(Cl)cccc2Cl)c1C(=O)NNc1ccccc1 [N′4-phenyl-3-(2,6-dichlorophenyl)-5-methylisoxazole-4-carbohydrazide]
- Activity at 2 microgram/ml Without HGF/SF (result in words) ([1]; without HGF/SF): No effect
- Activity at 6 microgram/ml Without HGF/SF (result in words) ([1]; 6 microgram/ml, without HGF/SF): No effect
- inhibition at 2 µg/mL [3, 6]: 40%
- inhibition at 6 µg/mL [3, 5]: 80%

Compound: Cc1nn(C(=O)C(C)(C)C)c(C)c1Cc1c(F)cccc1Cl [1-(4-(2-chloro-6-fluorobenzyl)-3,5-dimethyl-1H-pyrazole-1-yl)2,2-dimethylpropan-1-one]
- Activity at 2 microgram/ml Without HGF/SF (result in words) ([1]; without HGF/SF): No effect
- Activity at 6 microgram/ml Without HGF/SF (result in words) ([1]; 6 microgram/ml, without HGF/SF): No effect
- inhibition at 2 µg/mL [3, 6]: 25%
- inhibition at 6 µg/mL [3, 5]: 25%

Compound: COc1cc(CCC(=O)NNC(=O)c2c(-c3c(Cl)cccc3Cl)noc2C)cc(OC)c1OC [N′4-(3-(3,4,5-trimethoxyphenyl)propanoyl)-3-(2,6-dichlorophenyl)-5-methylisoxazole-4-carbohydrazide]
- Activity at 6 microgram/ml Without HGF/SF (result in words) ([1]; 6 microgram/ml, without HGF/SF): Cytotoxic
- inhibition at 2 µg/mL ([1]; without HGF/SF): 50%
- inhibition at 2 µg/mL [3, 6]: 50%

Compound: Cc1onc(-c2c(Cl)cccc2Cl)c1C(=O)NNC(=O)CON=Cc1ccc(Cl)cc1Cl [N′4-(2-(((2,4-dichlorobenzylidene)amino)oxy)acetyl)-3-(2,6-dichlorophenyl)-5-methylisoxazole-4-carbohydrazide]
- Activity at 2 microgram/ml Without HGF/SF: stimulation [1, 7]: 32%
- Activity at 6 microgram/ml Without HGF/SF (result in words) ([1]; 6 microgram/ml, without HGF/SF): No effect
- Activity at 2 microgram/ml With HGF/SF: stimulation ([3]; 2 microgram/ml, stimulation of HUVEC proliferation): 30%
- Activity at 6 microgram/ml With HGF/SF (result in words) ([3]; 6 microgram/ml): No effect

Compound: Cc1nc(C(=O)NNC(=O)c2c(-c3c(Cl)cccc3Cl)noc2C)cs1 [N′4-((2-methyl-1,3-thiazol-4-4yl)carbonyl)-3-(2,6-dichlorophenyl)-5-methylisoxazole-4-4carbohydrazide]
- Activity at 2 microgram/ml Without HGF/SF (result in words) ([1]; without HGF/SF): No effect
- Activity at 6 microgram/ml Without HGF/SF: stimulation ([1]; 6 microgram/ml, without HGF/SF, stimulation of HUVEC proliferation): 52%
- Activity at 2 microgram/ml With HGF/SF: inhibition (blocked SF) [3, 6]: 50%
- Activity at 6 microgram/ml With HGF/SF: inhibition (blocked SF) [3, 5]: 50%

Compound: c1ccc(-c2cc(-c3ccccc3)c(-c3ccccc3)c(-c3ccccc3)c2-c2ccccc2)cc1 [pentaphenylbenzene]
- Stimulation at 6-12 micrograms/ml Without HGF/SF [1, 8]: two to three fold stimulation
- Inhibition at 6-12 micrograms/ml With ([3]; 6-12 micrograms/ml): 50% inhibition

Compound: Cc1onc(-c2c(Cl)cccc2Cl)c1C(=O)NNC(=S)Oc1ccccc1[N+](=O)[O-] [2-nitrophenyl 2-((3-(2,6-dichlorophenyl)-5-methylisoxazol-4-yl)carbonyl)hydrazine-1-carbothioate]
- Activity at 2 microgram/ml Without HGF/SF (result in words) ([1]; without HGF/SF): No effect
- inhibition at 6 µg/mL ([1]; 6 microgram/ml, without HGF/SF): 80%
- Activity at 2 microgram/ml With HGF/SF (result in words) ([3]; 2 microgram/ml): No effect
- inhibition at 6 µg/mL [3, 5]: 80%

Compound: Cc1ccc(N=Cc2ccco2)c(C)c1 [N-(furfurylidene)-2,4-xylidine]
- Inhibition at 6-12 micrograms/ml Without HGF/SF ([1]; 6-12 micrograms/ml, without HGF/SF, inhibition of endothelial cell proliferation): 30-40% inhibition
- Inhibition at 6-12 micrograms/ml With ([3]; 6-12 micrograms/ml): 50-60% inhibition

Compound: O=C1c2ccccc2N(c2ccccc2)C(=O)C1(Br)Br [VC8, 3,3-dibromo-1-phenyl-1,2,3,4-tetrahydroquinoline-2,4-dione]
- VEGF-like activity (VEGF-like activity): positive activity

Compound: O=C(C=Cc1ccc(Br)cc1)c1ccccc1 [3-(4-Bromophenyl)-1-phenylprop-2-en-1-one]
- Stimulation at 1 ug/ml Without HGF/SF ([1]; 1 ug/ml, without HGF/SF, stimulation of endothelial cell proliferation): 40-80% stimulation at 1
- Stimulation/Inhibition at 6-12 micrograms/ml With (result in words) ([3]; 6-12 micrograms/ml): some additive effect
